Consider three compounds from patent US11492636B2, “Modified bialaphos resistance acetyltransferase compositions and uses thereof” (Whitehead Institute for Biomedical Research, priority 2016, dated 2022).

The structures appear in SMILES notation. Values joined by “and” are separate entries in the source; they are usually repeats but may differ in a detail not shown here. Equal values may be shown once.

In the assay the target is T1, BAR (Streptomyces hygroscopicus, UniProt P16426).
T1 construct: made in house; host or cells: E. coli BL21(DE3)
T1 sequence (P16426 whole entry): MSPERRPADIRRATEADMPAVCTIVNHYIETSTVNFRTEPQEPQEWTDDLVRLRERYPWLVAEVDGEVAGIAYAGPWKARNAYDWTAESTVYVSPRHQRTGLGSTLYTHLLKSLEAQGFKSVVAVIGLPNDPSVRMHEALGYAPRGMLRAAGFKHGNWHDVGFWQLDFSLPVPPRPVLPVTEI
The experiment in a line: In vitro enzyme kinetic assays of recombinant BAR against native and non-native substrates. The note with it: for in vitro substrate of BAR (N-acetyltransferase activity): recombinant BAR, up to 8.4 mM substrate; for KM values of BAR against aminoadipate and tryptophan (estimated): substrates reached solubility limit before saturation. In kind it is biochemical. The text has this:
The BAR coding sequence was amplified by PCR (KaPa HiFi HotStart polymerase; KaPa Biosystems) from genomic DNA extracted from homozygous plants of the SAIL line SAIL_1165_B02 using primers SAIL_BAR_F_pPROEX and SAIL_BAR_R_pPROEX (see Table 3) and then cloned into pProEX Hta (Invitrogen) via EcoRI and HindIII resulting in a 6×His-BAR fusion construct. 6×His-BAR was expressed in E. coli BL21(DE3) grown in Luria-Bertani medium. At an optical density at 600 nm of 0.6, protein expression was induced with 1.0 mM isopropylthio-β-galactoside (IPTG), and cells were grown at 37° C. for 2.5 h. Cells from a 200 mL culture were harvested by centrifugation and resuspended in 8 mL binding buffer (20 mM HEPES-KOH pH 7.4, 0.5 M NaCl, 10% (v/v) glycerol, 20 mM imidazole) supplemented with 3 U mL^−1 DNase (Promega), 2 mM MgCl2 and 1/10 of a tablet containing a protease inhibitor cocktail (Complete; Roche Applied Science). Cell lysis was performed by use of a high-pressure cell breaker (Cell Disruption System; Constant Systems) at a pressure of 150 MPa. All the following steps were carried out at 4° C. The lysate was centrifuged (16,000 g, 20 min) and a 50% (v/v) slurry of Ni^2+-ion charged agarose beads (Ni Sepharose 6 Fast Flow; GE Healthcare) in binding buffer was added to the supernatant (0.25 mL 50% slurry per mL of supernatant). The mix was incubated for 1 h with slight shaking and then loaded on a Poly-Prep® chromatography column (0.8×4 cm; Bio-Rad). The beads were washed with 10 mL of binding buffer and 3 mL of wash buffer (20 mM HEPES-KOH pH 7.4, 0.5 M NaCl, 10% (v/v) glycerol, 40 mM imidazole) by gravity flow before elution with 3 mL of elution buffer (20 mM HEPES-KOH pH 7.4, 0.5 M NaCl, 10% (v/v) glycerol, 500 mM imidazole). The buffer was exchanged with storage buffer (20 mM HEPES-KOH pH 7.4, 0.5 M NaCl, 10% (v/v) glycerol, 1 mM dithiothreitol) using an ultra-centrifugal filter (MWCO 10,000; Vivaspin 6, Sartorius Stedim Biotech). The purity of the protein preparation was assessed by SDS-PAGE and the concentration was determined by using a NanoDrop 2000 UV-VIS spectrometer (Thermo Scientific).
Enzyme assays were carried out in 10 mM HEPES-KOH (pH 7.4), 20 mM MgCl2, and 2 mM acetyl-CoA (Sigma-Aldrich; final volume 25 μl). Before determining the kinetics of BAR with different substrates, time-dependent activity of the purified protein was tested at substrate concentrations of 200 μM L-phosphinothricin (glufosinate ammonium, considered as a 1:1 mixture of L- and D-enantiomers; Sigma-Aldrich) or 400 μM (L-aminoadipate and L-tryptophan; Sigma-Aldrich). Reactions were initiated by the addition of purified BAR at 0.03 μM (assays with L-phosphinothricin) or 20 μM (assays with aminoadipate or tryptophan) and incubated at 25° C. for the indicated times (FIGS. 8A-8D). Reactions were stopped by the addition of three volumes of methanol supplemented with 0.5% (v/v) formic acid. Likewise, substrate concentration-dependence was determined by incubating assays for 7.5 min (assays with L-phosphinothricin) or 2 h (assays with aminoadipate or tryptophan; FIG. 3). Control assays (FIG. 3B) were performed with aminoadipate and tryptophan at 8.4 mM, but in the absence of BAR. In addition, D-tryptophan (Sigma-Aldrich) was tested as potential substrate at 8.4 mM (FIG. 3B).
In vitro assays with aminoadipate and tryptophan as substrate were analyzed by LC-MS as described above. In vitro assays with L-phosphinothricin were analyzed by LC-MS as described above, but using a normal-phase chromatography system as follows: an 150 mm amide column (ACQUITY UPLC™ BEH amide, 1.7 μm, 2.1×150 mm, Waters) was developed using LC-MS solvents (Chemie Brunschwig) with a gradient (flow rate of 0.4 mL min^−1) of solvent B (acetonitrile with 0.1% (v/v) formic acid) in solvent A (water with 0.1% (v/v) formic acid) as follows (all (v/v)): 95% for 0.5 min, 95% to 30% in 12 min, 30% for 2 min, 30% to 95% in 1 min and 95% for 5 min. […]

For orientation: Km means the concentration of substrate that gives half-maximal velocity. For the compound `CP(=O)(O)CC[C@H](N)C(=O)O` [phosphinothricin, reference compound], the Km (N-acetylation by recombinant BAR, Michaelis-Menten kinetics, read-out: apparent KM) was ~39 µM and 39 µM.

As for `N[C@@H](Cc1c[nH]c2ccccc12)C(=O)O` [tryptophan, L-tryptophan], the “in vitro substrate of BAR (N-acetyltransferase activity)” value is reported as “in vitro substrates of BAR”; the “KM values of BAR against aminoadipate and tryptophan (estimated)” value was “at least in the millimolar range”.

`NC(CCCC(=O)O)C(=O)O` [aminoadipate, L-aminoadipate]: the “in vitro substrate of BAR (N-acetyltransferase activity)” value is listed as “in vitro substrates of BAR”; the “KM values of BAR against aminoadipate and tryptophan (estimated)” value is recorded as “at least in the millimolar range”. Moreover, the “catalytic activity of BAR toward aminoadipate compared with tryptophan” value (in vitro) is reported as “relatively higher catalytic activity”.
